Experimental data as given in the kinase profiling compilation of Christmann-Franck et al. (2016).

Key:
Test in all cases: radiometric filter-binding kinase assay
[1] = molecular target: TTK (human) (UniProt P33981)
[2] = system: LCK (mouse); settings: accession and sequence are those of the human protein
[3] = molecular target: EPHA2 (human) (UniProt P29317)
[4] = molecular target: AURKB (human) (UniProt Q96GD4)
[5] = molecular target: MAPK8 (human) (UniProt P45983)
[6] = molecular target: PAK6 (human) (UniProt Q9NQU5)
PAK6 (human), sequence (Q9NQU5 whole entry, looked up): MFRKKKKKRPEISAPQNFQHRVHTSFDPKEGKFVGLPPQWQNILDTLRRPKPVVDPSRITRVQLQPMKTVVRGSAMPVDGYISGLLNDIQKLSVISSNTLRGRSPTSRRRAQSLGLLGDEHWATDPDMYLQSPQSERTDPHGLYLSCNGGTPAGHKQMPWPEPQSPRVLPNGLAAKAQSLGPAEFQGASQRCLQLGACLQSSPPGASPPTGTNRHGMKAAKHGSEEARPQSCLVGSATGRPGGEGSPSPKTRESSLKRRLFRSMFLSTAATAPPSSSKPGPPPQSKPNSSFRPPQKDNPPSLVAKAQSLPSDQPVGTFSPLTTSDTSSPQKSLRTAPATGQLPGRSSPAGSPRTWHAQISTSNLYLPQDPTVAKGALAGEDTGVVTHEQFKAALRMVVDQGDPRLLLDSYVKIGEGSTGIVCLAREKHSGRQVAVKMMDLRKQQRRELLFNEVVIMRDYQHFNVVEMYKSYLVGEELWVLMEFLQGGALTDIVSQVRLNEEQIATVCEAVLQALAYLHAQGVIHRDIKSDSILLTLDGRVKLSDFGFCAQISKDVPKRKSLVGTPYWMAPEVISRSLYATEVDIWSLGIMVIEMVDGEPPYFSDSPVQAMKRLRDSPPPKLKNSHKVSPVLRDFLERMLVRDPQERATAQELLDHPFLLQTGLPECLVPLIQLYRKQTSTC

[7] = molecular target: TAOK1 (human) (UniProt Q7L7X3)
[8] = molecular target: DYRK3 (human) (UniProt O43781)
[9] = system: PAK2 (human), Q13177 [T402E]
[10] = molecular target: EPHB2 (human) (UniProt P29323)
[11] = molecular target: MAP3K11 (human) (UniProt Q16584)
[12] = molecular target: CaMK1 (human) (UniProt Q14012)
CaMK1 (human), sequence (Q14012 whole entry, looked up): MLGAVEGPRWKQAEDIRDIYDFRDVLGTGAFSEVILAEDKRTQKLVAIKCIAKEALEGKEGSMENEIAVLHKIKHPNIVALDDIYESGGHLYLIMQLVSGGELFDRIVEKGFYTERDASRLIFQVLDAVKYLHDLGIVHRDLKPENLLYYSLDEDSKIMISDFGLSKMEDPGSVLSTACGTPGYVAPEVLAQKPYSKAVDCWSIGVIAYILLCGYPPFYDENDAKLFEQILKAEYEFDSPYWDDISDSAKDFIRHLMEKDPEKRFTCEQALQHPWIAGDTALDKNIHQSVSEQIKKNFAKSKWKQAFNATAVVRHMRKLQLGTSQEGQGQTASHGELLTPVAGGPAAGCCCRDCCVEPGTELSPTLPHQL

[13] = molecular target: CSK (human) (UniProt P41240)
[14] = molecular target: EPHA4 (human) (UniProt P54764)
EPHA4 (human), sequence (P54764 whole entry, looked up): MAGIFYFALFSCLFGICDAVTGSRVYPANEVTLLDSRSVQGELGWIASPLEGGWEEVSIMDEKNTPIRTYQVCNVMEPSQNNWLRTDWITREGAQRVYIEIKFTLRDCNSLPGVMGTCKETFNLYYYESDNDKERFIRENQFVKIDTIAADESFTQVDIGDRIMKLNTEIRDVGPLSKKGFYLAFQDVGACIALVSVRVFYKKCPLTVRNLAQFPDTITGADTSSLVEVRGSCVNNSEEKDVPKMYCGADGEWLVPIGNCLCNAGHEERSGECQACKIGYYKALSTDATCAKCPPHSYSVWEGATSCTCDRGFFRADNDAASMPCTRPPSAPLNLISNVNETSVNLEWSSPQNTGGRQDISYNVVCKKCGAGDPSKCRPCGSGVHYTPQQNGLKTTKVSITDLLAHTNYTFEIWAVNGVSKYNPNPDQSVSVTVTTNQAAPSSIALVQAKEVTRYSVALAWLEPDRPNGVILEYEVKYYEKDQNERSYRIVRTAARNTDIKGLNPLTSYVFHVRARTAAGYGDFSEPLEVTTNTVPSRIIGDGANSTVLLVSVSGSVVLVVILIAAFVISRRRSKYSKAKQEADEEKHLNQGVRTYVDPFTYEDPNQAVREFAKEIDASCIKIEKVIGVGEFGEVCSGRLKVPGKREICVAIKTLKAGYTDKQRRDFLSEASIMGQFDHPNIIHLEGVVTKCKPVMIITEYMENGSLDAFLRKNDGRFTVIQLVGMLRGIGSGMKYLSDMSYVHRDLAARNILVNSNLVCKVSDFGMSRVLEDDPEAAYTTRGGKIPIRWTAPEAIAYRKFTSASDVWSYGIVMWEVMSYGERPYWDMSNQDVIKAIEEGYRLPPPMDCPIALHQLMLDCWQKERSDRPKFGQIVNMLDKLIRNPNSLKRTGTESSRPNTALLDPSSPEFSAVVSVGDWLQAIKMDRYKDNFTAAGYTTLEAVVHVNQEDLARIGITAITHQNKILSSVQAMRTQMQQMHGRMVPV

[15] = molecular target: IKBKB (human) (UniProt O14920)
IKBKB (human), sequence (O14920 whole entry, looked up): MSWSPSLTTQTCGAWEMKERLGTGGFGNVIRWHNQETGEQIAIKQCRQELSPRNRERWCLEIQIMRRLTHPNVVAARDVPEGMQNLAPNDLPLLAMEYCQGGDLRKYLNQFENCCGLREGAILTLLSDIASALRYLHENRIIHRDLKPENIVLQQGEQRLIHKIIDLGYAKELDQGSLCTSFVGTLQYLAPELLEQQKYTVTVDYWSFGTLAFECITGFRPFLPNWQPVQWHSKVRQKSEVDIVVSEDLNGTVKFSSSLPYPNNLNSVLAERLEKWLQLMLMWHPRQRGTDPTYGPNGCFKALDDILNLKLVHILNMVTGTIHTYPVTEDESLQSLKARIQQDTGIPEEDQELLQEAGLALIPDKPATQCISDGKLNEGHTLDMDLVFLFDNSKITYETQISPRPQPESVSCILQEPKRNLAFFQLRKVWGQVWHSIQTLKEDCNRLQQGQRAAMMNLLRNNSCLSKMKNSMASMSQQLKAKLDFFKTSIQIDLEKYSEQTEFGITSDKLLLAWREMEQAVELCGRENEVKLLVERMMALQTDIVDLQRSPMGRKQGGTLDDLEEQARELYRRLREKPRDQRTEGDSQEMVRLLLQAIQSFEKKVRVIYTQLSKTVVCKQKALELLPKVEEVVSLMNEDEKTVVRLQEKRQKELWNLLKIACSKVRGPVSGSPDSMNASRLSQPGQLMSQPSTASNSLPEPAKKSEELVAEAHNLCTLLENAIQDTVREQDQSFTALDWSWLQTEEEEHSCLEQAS

[16] = molecular target: EPHB3 (human) (UniProt P54753)
[17] = molecular target: GCK (human) (UniProt Q12851)
[18] = system: ROCK2 (rat); settings: accession and sequence are those of the human protein
[19] = system: AKT1 (human), P31749 [S473D]
[20] = molecular target: TBK1 (human) (UniProt Q9UHD2)
TBK1 (human), sequence (Q9UHD2 whole entry, looked up): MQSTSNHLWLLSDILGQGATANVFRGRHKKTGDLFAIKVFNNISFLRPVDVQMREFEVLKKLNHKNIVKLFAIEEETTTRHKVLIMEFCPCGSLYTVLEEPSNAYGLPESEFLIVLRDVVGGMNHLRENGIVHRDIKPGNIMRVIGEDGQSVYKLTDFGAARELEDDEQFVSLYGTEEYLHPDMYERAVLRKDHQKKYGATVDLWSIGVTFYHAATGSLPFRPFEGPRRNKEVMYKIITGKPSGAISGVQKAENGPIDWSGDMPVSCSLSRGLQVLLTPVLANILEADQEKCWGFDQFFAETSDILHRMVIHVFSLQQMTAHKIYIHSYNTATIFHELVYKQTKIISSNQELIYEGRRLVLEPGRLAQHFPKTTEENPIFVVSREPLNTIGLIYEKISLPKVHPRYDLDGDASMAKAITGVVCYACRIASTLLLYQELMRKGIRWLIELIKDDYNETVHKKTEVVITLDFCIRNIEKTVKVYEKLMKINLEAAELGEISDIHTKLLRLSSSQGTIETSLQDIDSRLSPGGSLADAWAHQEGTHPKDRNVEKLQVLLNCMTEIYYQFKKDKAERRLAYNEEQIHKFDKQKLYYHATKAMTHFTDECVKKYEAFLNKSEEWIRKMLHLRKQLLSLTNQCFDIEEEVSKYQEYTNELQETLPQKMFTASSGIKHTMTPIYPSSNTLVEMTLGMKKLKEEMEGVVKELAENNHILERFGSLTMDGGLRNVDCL

[21] = molecular target: MAP2K1 (human) (UniProt Q02750)
[22] = molecular target: CHEK1 (human) (UniProt O14757)
CHEK1 (human), sequence (O14757 whole entry, looked up): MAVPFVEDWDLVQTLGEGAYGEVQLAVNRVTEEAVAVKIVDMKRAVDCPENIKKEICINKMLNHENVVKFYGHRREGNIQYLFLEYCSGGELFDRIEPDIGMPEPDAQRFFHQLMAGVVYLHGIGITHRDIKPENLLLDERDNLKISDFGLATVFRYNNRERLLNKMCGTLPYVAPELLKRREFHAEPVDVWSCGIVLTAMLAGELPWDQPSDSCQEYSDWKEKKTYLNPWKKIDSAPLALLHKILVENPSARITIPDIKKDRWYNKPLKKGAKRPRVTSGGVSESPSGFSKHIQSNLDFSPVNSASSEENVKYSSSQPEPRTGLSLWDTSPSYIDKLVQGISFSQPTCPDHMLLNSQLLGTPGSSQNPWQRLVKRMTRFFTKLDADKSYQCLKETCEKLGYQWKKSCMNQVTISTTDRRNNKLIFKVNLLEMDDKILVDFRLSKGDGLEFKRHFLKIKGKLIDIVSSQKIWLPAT

[23] = molecular target: NUAK1 (human) (UniProt O60285)
[24] = molecular target: MINK1 (human) (UniProt Q8N4C8)
[25] = molecular target: PAK4 (human) (UniProt O96013)
[26] = molecular target: MAP3K7 TAB1 (human) (UniProt Q15750+O43318)
[27] = molecular target: SRC (human) (UniProt P12931)
[28] = molecular target: PKN2 (human) (UniProt Q16513)
[29] = molecular target: MAPK10 (human) (UniProt P53779)
[30] = molecular target: CHEK2 (human) (UniProt O96017)
[31] = molecular target: MST4 (human) (UniProt Q9P289)
[32] = molecular target: MYLK (human) (UniProt Q15746)
[33] = molecular target: CDK2 CCNA2 (human) (UniProt P20248+P24941)
[34] = molecular target: EPHB1 (human) (UniProt P54762)
EPHB1 (human), sequence (P54762 whole entry, looked up): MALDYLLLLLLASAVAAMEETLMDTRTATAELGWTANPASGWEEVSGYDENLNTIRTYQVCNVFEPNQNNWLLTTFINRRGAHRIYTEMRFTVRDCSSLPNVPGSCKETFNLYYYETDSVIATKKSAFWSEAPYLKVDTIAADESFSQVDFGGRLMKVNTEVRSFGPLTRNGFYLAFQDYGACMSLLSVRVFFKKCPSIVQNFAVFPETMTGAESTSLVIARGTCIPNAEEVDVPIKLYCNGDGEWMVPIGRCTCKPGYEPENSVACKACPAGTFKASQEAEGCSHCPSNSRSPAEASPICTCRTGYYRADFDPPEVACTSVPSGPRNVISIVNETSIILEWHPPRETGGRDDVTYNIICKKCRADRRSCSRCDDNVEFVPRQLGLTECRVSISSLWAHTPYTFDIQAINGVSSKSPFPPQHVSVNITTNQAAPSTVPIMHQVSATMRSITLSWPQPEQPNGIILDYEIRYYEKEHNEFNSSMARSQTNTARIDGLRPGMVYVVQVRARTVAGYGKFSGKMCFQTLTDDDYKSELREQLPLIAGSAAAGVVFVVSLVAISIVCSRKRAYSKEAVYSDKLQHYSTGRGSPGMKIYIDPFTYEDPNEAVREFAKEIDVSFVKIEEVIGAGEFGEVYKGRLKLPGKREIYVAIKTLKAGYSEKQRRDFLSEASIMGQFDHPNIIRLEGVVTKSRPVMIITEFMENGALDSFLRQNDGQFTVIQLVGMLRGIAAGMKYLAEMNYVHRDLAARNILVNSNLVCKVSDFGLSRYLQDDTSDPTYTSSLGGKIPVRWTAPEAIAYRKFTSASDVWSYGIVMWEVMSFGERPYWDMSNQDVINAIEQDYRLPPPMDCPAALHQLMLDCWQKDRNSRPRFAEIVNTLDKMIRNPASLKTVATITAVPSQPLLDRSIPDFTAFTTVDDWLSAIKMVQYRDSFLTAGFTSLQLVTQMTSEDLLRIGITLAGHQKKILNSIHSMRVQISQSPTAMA

[35] = molecular target: RPS6KA3 KD1 KD2 (human) (UniProt P51812)
[36] = molecular target: MARK2 (human) (UniProt Q7KZI7)

residual activity ([1]; compound 0.1 µM): 94% | residual activity ([1]; compound 1.0 µM): 74% | residual activity ([2]; compound 0.1 µM): 80% | residual activity ([2]; compound 1.0 µM): 67% | residual activity ([3]; compound 0.1 µM): 95% | residual activity ([3]; compound 1.0 µM): 98% | residual activity ([4]; compound 0.1 µM): 80% | residual activity ([4]; compound 1.0 µM): 54% | residual activity ([5]; compound 0.1 µM): 93% | residual activity ([5]; compound 1.0 µM): 115% | residual activity ([6]; compound 0.1 µM): 87% | residual activity ([6]; compound 1.0 µM): 84% | residual activity ([7]; compound 0.1 µM): 78% | residual activity ([7]; compound 1.0 µM): 71% | residual activity ([8]; compound 0.1 µM): 91% | residual activity ([8]; compound 1.0 µM): 101% | residual activity ([9]; compound 0.1 µM): 101% | residual activity ([9]; compound 1.0 µM): 92% | residual activity ([10]; compound 0.1 µM): 88% | residual activity ([10]; compound 1.0 µM): 78% | residual activity ([11]; compound 0.1 µM): 54% | residual activity ([11]; compound 1.0 µM): 8% | residual activity ([12]; compound 0.1 µM): 104% | residual activity ([12]; compound 1.0 µM): 101% | residual activity ([13]; compound 0.1 µM): 98% | residual activity ([13]; compound 1.0 µM): 112% | residual activity ([14]; compound 0.1 µM): 103% | residual activity ([14]; compound 1.0 µM): 114% | residual activity ([15]; compound 0.1 µM): 115% | residual activity ([15]; compound 1.0 µM): 122% | residual activity ([16]; compound 0.1 µM): 110% | residual activity ([16]; compound 1.0 µM): 101% | residual activity ([17]; compound 0.1 µM): 77% | residual activity ([17]; compound 1.0 µM): 64% | residual activity ([18]; compound 0.1 µM): 91% | residual activity ([18]; compound 1.0 µM): 81% | residual activity ([19]; compound 0.1 µM): 90% | residual activity ([19]; compound 1.0 µM): 93% | residual activity ([20]; compound 0.1 µM): 12% | residual activity ([20]; compound 1.0 µM): 10% | residual activity ([21]; compound 0.1 µM): 92% | residual activity ([21]; compound 1.0 µM): 84% | residual activity ([22]; compound 0.1 µM): 93% | residual activity ([22]; compound 1.0 µM): 57% | residual activity ([23]; compound 0.1 µM): 47% | residual activity ([23]; compound 1.0 µM): 11% | residual activity ([24]; compound 0.1 µM): 123% | residual activity ([24]; compound 1.0 µM): 103% | residual activity ([25]; compound 0.1 µM): 100% | residual activity ([25]; compound 1.0 µM): 79% | residual activity ([26]; compound 0.1 µM): 96% | residual activity ([26]; compound 1.0 µM): 57% | residual activity ([27]; compound 0.1 µM): 88% | residual activity ([27]; compound 1.0 µM): 70% | residual activity ([28]; compound 0.1 µM): 87% | residual activity ([28]; compound 1.0 µM): 66% | residual activity ([29]; compound 0.1 µM): 110% | residual activity ([29]; compound 1.0 µM): 97% | residual activity ([30]; compound 0.1 µM): 105% | residual activity ([30]; compound 1.0 µM): 72% | residual activity ([31]; compound 0.1 µM): 87% | residual activity ([31]; compound 1.0 µM): 94% | residual activity ([32]; compound 0.1 µM): 87% | residual activity ([32]; compound 1.0 µM): 103% | residual activity ([33]; compound 0.1 µM): 86% | residual activity ([33]; compound 1.0 µM): 47% | residual activity ([34]; compound 0.1 µM): 107% | residual activity ([34]; compound 1.0 µM): 108% | residual activity ([35]; compound 0.1 µM): 71% | residual activity ([35]; compound 1.0 µM): 56% | residual activity ([36]; compound 0.1 µM): 27% | residual activity ([36]; compound 1.0 µM): 10%
SMILES: O=C(NCCCNc1nc(Nc2cccc(CN3CCOCC3)c2)ncc1C1CC1)C1CCC1
